What was measured:
BMX = biological target: T1, BMX (Homo sapiens, UniProt P51813); assay: z-lyte kinase assay, BMX; assay type: biochemical
T1 construct: purchased Invitrogen
T1 sequence (P51813 1-675): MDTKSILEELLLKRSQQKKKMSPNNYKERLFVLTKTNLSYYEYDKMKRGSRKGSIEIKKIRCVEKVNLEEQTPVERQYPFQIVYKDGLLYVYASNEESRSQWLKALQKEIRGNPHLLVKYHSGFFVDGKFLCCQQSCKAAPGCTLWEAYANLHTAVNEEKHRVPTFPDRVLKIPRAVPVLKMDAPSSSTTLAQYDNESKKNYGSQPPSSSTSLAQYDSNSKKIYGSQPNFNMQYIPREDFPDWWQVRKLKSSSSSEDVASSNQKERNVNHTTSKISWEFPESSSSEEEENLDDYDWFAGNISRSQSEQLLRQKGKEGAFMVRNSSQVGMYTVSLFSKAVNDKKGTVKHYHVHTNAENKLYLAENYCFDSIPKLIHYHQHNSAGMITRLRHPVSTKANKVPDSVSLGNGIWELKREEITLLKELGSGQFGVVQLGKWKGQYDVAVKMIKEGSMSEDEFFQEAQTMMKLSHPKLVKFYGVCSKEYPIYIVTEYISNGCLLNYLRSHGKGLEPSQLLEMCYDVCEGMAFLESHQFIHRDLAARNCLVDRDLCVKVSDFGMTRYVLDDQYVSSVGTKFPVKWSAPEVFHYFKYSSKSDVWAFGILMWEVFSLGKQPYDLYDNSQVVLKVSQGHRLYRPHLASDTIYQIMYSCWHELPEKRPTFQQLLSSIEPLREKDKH

[1] = tested on: NCI-H1975 (EGFR L858R/T790M); assay: Inhibition test for growth of cancer cell expressing EGFR (MTS), NCI-H1975; assay type: cell-based; details: Homo sapiens; NCI-H1975 cells, 48 hours, MTS; read-out: GI50 NCI-H1975 EGFR L858R/T790M
BTK = biological target: T2, BTK (Homo sapiens, UniProt Q06187); assay: z-lyte kinase assay, BTK; assay type: biochemical
T2 construct: purchased Invitrogen
T2 sequence (Q06187 whole entry): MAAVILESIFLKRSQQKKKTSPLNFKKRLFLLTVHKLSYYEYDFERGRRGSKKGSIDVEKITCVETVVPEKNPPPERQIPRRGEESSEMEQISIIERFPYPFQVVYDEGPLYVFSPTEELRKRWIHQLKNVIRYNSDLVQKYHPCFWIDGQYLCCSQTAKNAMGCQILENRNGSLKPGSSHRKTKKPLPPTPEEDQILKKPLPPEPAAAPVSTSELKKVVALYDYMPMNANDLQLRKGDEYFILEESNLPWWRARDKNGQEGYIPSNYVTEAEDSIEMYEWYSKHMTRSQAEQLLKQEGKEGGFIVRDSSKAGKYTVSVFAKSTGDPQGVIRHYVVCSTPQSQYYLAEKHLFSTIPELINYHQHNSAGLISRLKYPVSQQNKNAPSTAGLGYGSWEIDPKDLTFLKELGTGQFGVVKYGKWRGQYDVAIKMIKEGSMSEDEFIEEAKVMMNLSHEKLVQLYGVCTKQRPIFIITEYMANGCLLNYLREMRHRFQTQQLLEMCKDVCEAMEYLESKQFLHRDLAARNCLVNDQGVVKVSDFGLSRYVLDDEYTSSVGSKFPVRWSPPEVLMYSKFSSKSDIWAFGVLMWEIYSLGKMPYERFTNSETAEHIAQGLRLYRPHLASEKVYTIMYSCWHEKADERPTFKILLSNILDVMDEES
How it was run: (§1)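 Each kinase was mixed with peptide substrate, compound (dilution series made at 1–0.0001 μM in 4% DMSO) and ATP added from a 5~300 μM solution, then incubated 60 min at RT. After development reagent and stop solution, fluorescence was read at 400 nm excitation/520 nm emission and IC50 calculated.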

[2] = tested on: HCC827 (EGFR DelE746_A750); assay: Inhibition test for growth of cancer cell expressing EGFR (SRB), HCC827; assay type: cell-based; details: Homo sapiens, HCC827, 72 h, HCC827 cells, 72 hours, SRB; read-out: GI50 HCC827 EGFR DelE746_A750;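 further: cells in 96-well plates exposed to tenfold serial dilutions from 100 µM, fixed with trichloroacetic acid, SRB-stained, absorbance read at 540 nm, DMSO under 1%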
JAK3 = biological target: T3, JAK3 (Homo sapiens, UniProt P52333); assay: z-lyte kinase assay, JAK3; assay type: biochemical
T3 construct: purchased Invitrogen
T3 sequence (P52333 1-1124): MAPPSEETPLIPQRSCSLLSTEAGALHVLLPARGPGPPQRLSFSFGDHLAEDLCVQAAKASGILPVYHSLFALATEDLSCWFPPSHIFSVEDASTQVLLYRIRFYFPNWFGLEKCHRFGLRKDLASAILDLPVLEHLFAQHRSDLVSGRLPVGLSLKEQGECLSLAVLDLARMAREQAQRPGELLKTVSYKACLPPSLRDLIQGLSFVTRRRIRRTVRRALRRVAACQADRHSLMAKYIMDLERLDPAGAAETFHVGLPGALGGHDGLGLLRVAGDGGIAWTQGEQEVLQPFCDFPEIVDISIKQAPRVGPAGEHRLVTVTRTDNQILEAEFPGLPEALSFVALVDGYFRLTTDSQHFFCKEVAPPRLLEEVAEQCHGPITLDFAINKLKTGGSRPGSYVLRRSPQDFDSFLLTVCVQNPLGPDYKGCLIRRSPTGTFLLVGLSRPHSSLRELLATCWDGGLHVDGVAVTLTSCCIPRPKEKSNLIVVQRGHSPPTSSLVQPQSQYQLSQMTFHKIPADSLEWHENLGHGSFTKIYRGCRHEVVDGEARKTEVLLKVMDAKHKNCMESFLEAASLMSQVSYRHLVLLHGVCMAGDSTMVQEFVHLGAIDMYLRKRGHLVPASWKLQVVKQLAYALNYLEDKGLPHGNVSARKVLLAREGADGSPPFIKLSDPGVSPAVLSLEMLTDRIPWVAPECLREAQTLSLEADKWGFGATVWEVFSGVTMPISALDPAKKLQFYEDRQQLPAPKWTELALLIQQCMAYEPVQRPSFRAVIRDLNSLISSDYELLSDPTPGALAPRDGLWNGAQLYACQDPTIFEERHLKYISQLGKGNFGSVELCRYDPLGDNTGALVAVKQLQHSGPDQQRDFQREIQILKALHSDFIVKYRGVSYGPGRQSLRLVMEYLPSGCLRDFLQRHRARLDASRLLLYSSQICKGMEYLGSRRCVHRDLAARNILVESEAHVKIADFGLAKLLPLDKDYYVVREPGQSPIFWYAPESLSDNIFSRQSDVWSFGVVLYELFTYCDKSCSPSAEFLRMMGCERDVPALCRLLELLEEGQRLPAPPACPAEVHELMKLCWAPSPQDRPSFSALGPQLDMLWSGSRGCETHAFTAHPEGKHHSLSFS
How it was run: as §1

C=CC(=O)Nc1cccc(Oc2nc(Nc3ccc(N4CCN(C)CC4)cc3)nc3ccsc23)c1 [Example 1, N-(3-(2-(4-(4-methylpiperazin-1-yl)phenylamino)thieno[3,2-d]pyrimidine-4-yloxy)phenyl)acrylamide]
IC50 (BMX): ≤ 50 nM | GI50 [1]: < 50 nM | IC50 (BTK): ≤ 50 nM | GI50 [2]: < 50 nM | IC50 (JAK3): ≤ 50 nM

Reference: patent USRE46511E1, “Fused pyrimidine derivatives for inhibition of tyrosine kinase activity” (HANMI SCIENCE CO., LTD., priority 2010, dated 2017)
